ChEMBL document CHEMBL3886773, “Immune system modulators” (2016)

Target: T1, Toll-like receptor 9 (Homo sapiens, UniProt Q9NR96)
T1 sequence (Q9NR96 whole entry): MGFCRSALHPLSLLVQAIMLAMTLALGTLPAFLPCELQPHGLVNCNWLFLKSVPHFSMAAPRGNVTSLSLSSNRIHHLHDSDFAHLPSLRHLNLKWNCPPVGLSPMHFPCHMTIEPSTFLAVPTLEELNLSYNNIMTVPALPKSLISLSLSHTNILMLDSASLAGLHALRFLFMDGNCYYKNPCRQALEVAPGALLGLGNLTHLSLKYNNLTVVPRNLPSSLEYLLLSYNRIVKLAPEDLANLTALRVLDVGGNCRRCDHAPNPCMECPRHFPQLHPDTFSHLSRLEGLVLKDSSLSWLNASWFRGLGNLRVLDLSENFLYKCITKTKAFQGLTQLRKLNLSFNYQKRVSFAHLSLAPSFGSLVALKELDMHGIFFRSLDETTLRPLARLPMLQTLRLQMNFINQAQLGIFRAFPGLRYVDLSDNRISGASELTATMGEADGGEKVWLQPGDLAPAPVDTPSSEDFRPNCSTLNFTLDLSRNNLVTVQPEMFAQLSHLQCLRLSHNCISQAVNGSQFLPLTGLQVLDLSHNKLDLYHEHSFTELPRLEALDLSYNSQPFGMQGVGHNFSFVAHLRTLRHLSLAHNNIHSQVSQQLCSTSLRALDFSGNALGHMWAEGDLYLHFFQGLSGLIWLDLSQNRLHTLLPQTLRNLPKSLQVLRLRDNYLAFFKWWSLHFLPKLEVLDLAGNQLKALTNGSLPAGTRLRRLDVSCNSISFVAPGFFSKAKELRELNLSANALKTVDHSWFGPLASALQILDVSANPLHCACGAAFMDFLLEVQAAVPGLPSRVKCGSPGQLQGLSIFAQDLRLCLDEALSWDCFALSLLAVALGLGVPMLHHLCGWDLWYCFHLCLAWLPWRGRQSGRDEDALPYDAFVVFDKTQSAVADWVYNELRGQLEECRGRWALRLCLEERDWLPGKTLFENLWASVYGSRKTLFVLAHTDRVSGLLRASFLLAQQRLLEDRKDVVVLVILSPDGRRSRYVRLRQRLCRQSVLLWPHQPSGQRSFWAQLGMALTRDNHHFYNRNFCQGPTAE
Experiment: Antagonism Assay: Day 1: A cell suspension of HEK-Blue™-hTLR9 cells at ~450,000 cells per ml in test medium which contained 5% (v/v) heat inactivated FBS was prepared. 180 μl of cell suspension (Ë¿80,000 cells) was added per well of a flat-bottom 96-well plate and place in an incubator at 37° C. for overnight. Day 2: Test compounds were serially diluted in test medium, generally starting at 10 μM, and diluting by 3 fold in a 96 well master plate. 20 μl of diluted test compound was transferred using a 12 channel multi-channel pipet to the cell plate and incubated at 37° C. for 1 hour. Then 20 μl of an hTLR9 agonist (such as ODN 2006, 1 μM) was added to each well and the plate incubated at 37° C. overnight. Day 3: Invivogen's QUANTI-Blue™ was prepared following the manufacturer's instructions. […] of resuspended QUANTI-Blue™ was added per well of a flat bottom 96-well plate. 20 μl per well of induced HEK-Blue™-hTLR9 cells supernatant was then added to the plate and the plate was incubated at 37° C. for 1-3 h. SEAP levels were determined using a spectrophotometer at 620 nm.

SMILES | IC50 [nM]
CN1CCN(c2cnc3c(NCCSC(=N)N)nc(-c4ccccc4)nc3n2)CC1 | > 10000
N#Cc1ccc(-c2nc3c(NCCN4CCOCC4)nc(-c4ccccc4)nc3n(CCN3CCOCC3)c2=O)cc1 | 487
CN1CCN(c2nc3nc(-c4ccccc4)nc(NCCN4CCOCC4)c3nc2NCCN2CCOCC2)CC1 | 317
CN1CCN(c2cnc3c(NCCCn4cncn4)nc(-c4ccccc4)nc3n2)CC1 | 2950
O=c1c(-c2cc(F)cc(F)c2)nc2c(NCCN3CCOCC3)nc(-c3ccccc3)nc2n1CCN1CCOCC1 | 901
CN1CCN(c2nc3nc(-c4ccccc4)nc(NCCN4CCOCC4)c3nc2Cl)CC1 | 62
CN(C)CCN(C)c1nc(-c2ccccc2)nc2nc(N3CCN(C)CC3)cnc12 | 112
CN1CCN(CCNc2nc(-c3ccccc3)nc3c2nc(-c2ccccc2)c(=O)n3CCN2CCN(C)CC2)CC1 | 124
CN1CCN(c2cnc3c(NCCc4ccncc4)nc(-c4ccccc4)nc3n2)CC1 | 991

Continued by falling IC50, values first:

IC50 [nM] | SMILES
3820 | O=c1c(C(F)(F)F)nc2c(NCCN3CCOCC3)nc(-c3ccccc3)nc2n1CCN1CCOCC1
2490 | Cc1cnc(CNc2nc(-c3ccccc3)nc3nc(N4CCN(C)CC4)cnc23)cn1
2480 | Cc1nc2c(NCCN3CCOCC3)nc(-c3ccccc3)nc2n(CCN2CCOCC2)c1=O
2180 | CN1CCN(c2cnc3c(NCCc4ccccn4)nc(-c4ccccc4)nc3n2)CC1
285 | CN1CCN(c2ccc(-c3nc(NCCN4CCOCC4)c4nccnc4n3)cc2)CC1
273 | CN1CCN(c2nc3nc(-c4ccc(C(C)(C)C)cc4)nc(NCCN4CCOCC4)c3nc2NCCN2CCOCC2)CC1
198 | CN1CCN(c2cnc3c(NCCCNc4nc(N)nc(N)n4)nc(-c4ccccc4)nc3n2)CC1
137 | O=c1c(-c2ccccc2)nc2c(NCCN3CCOCC3)nc(-c3ccccc3)nc2n1CCN1CCOCC1
113 | CN1CCN(CCNc2nc(-c3ccccc3)nc3nc(N4CCN(C)CC4)cnc23)CC1
